# In paper PMC10222209 (Pharmaceuticals, 2023):
# Entries after “also recorded” stand apart in the source; their conditions may differ. Where two headings read alike, the source gives them in different places.
# How the values were obtained:
# 22RV1 cells = test: Antiproliferative assay (resazurin, 72 h) in 22RV1 cells; format: cell-based; conditions: for inhibition at 1 µM / IC50: Homo sapiens; for inhibition at 1 µM: 22RV1, 1.0 μM, read-out: Inhibitory Rate 22RV1 @1.0 μM; for antiproliferative activity, in words: enzalutamide-resistant cell lines LNCaP95 and 22RV1, SAR statements
# Experimental: (§1) 22Rv1 cells were obtained from ATCC. LNCaP95 cells were provided by Dr. Yan Dong’s laboratory (Tulane University School of Medicine). LNCaP95 cells were maintained in an RPMI1640 medium with charcoal-stripped serum (CSS). 22Rv1 cells were maintained in an RPMI1640 medium with 10% FBS. Cells were seeded in 96-well plates (5 × 10^3 cells/well) containing a 50 μL growth medium for 24 h. After medium removal, a 100 μL fresh medium containing individual compounds at different concentrations was added to each well and incubated at 37 °C for 72 h. Then, 20 μL of resazurin was added for 2 h before recording fluorescence at 560 nm (excitation) and 590 nm (emission) using a Victor microtiter plate fluorometer (Perkin-Elmer, Waltham, MA, USA).
# LNCaP95 cells = test: Antiproliferative assay (resazurin, 72 h) in LNCaP95 cells; format: cell-based; conditions: LNCaP-95, antiproliferation
# Experimental: as §1
# [1] = antiproliferation, 22RV1, 72 h, mean of three independent experiments, read-out: IC50 (μM) 22RV1
# [2] = observed, −log IC50, 22RV1 antiproliferation, read-out: Obs pIC50 (converted)
# [3] = LNCaP95, 72 h, mean of three independent experiments, read-out: IC50 (μM) LNCaP95
IC50 (22RV1 cells; [1]),IC50 (22RV1 cells; [2]),IC50 (LNCaP95 cells; [3]),"IC50 (22RV1 cells; 22Rv1, antiproliferation, approximate value, read-out: IC50 in 22RV1 (text))","IC50 (LNCaP95 cells; approximate value, read-out: IC50 in LNCaP95 (text))",SMILES,inhibition at 1 µM (22RV1 cells),"antiproliferative activity, in words (22RV1 cells)"
–,–,–,–,–,Nc1ccc(NC(=O)c2cc(Cl)ccc2O)c(Cl)c1 [B2],19.6%,complete loss of activity
0.307 ± 0.059 µM,0.307 µM,0.213 ± 0.042 µM,–,–,O=C(Nc1ccc(C(F)(F)F)c(C(F)(F)F)c1)c1cc(Br)ccc1O [B4],53.1%,–
0.375 ± 0.063 µM,0.375 µM,0.384 ± 0.088 µM,–,–,O=C(Nc1ccc(C(F)(F)F)cc1Cl)c1cc(F)ccc1O [B5],59.2%,–
0.196 ± 0.032 µM,0.196 µM,0.185 ± 0.041 µM,–,–,O=C(Nc1ccc(C(F)(F)F)cc1F)c1cc(F)ccc1O [B6],62.5%,equivalent or improved anti-proliferation potency
7.92 ± 2.56 µM,7.93 µM,4.38 ± 1.33 µM,–,–,N#Cc1cc(C(F)(F)F)ccc1NC(=O)c1cc(F)ccc1O [B7],42.3%,–
0.24 ± 0.048 µM,0.24 µM,0.396 ± 0.065 µM,–,–,N#Cc1cc(NC(=O)c2cc(F)ccc2O)ccc1C(F)(F)F [B8],60.4%,–
0.547 ± 0.153 µM,0.547 µM,0.627 ± 0.225 µM,–,–,O=C(Nc1ccc(C(F)(F)F)nc1)c1cc(F)ccc1O [B10],42.3%,–
0.581 ± 0.205 µM,0.581 µM,0.392 ± 0.136 µM,–,–,O=C(Nc1ccnc(C(F)(F)F)c1)c1cc(F)ccc1O [B11],47.7%,–
3.23 ± 1.84 µM,3.23 µM,> 10 µM,–,–,N#Cc1ccc(NC(=O)c2cc(F)ccc2O)c(Cl)c1 [B12],44.3%,–
0.184 ± 0.061 µM,0.184 µM,0.231 ± 0.072 µM,–,–,N#Cc1ccc(NC(=O)c2cc(F)ccc2O)c(F)c1 [B13],65.6%,–
1.04 ± 0.26 µM,1.04 µM,2.35 ± 0.53 µM,–,–,N#Cc1ccc(O)c(C(=O)Nc2ccc(C(F)(F)F)c(C(F)(F)F)c2)c1 [B15],44.8%,–
0.111 ± 0.023 µM,0.111 µM,0.113 ± 0.044 µM,~0.1 µM,~0.1 µM,O=C(Nc1ccc(C(F)(F)F)c(C(F)(F)F)c1)c1cc(C(F)(F)F)ccc1O [B16],64.6%,equivalent or improved anti-proliferation potency
0.32 ± 0.115 µM,0.32 µM,0.299 µM,–,–,O=C(Nc1ccc(C(F)(F)F)c(C(F)(F)F)c1)c1cccc(Cl)c1 [C1],53.1%,retained
–,–,–,–,–,O=C(Nc1ccc([N+](=O)[O-])cc1Cl)c1cccc(Cl)c1 [C2],19%,significant loss of activity
–,–,–,–,–,O=C(Nc1ccc([N+](=O)[O-])cc1Cl)c1cccc(Br)c1 [C4],31.2%,significant loss of activity
0.481 ± 0.113 µM,0.481 µM,0.386 ± 0.098 µM,–,–,CC(=O)Oc1ccc(Cl)cc1C(=O)Nc1ccc([N+](=O)[O-])cc1Cl [C7],42.9%,comparable activity
0.252 ± 0.092 µM,0.252 µM,0.196 ± 0.064 µM,–,–,O=C(Nc1ccc([N+](=O)[O-])cc1Cl)c1cc(Cl)ccc1OS(=O)(=O)C(F)(F)F [C8],59.2%,equivalent or improved anti-proliferation potency; also recorded: slightly improved
–,–,–,–,–,"CNC(=O)c1ccc(N2C(=S)N(c3ccc(C#N)c(C(F)(F)F)c3)C(=O)C2(C)C)cc1F [Enzalutamide, reference compound]",24.1%,–
0.284 ± 0.059 µM,0.284 µM,0.372 ± 0.074 µM,–,–,"O=C(Nc1ccc([N+](=O)[O-])cc1Cl)c1cc(Cl)ccc1O [Niclosamide, reference compound]",55.8%,–

SMILES,IC50 (22RV1 cells; [1]),IC50 (22RV1 cells; [2]),IC50 (LNCaP95 cells; [3]),"IC50 (22RV1 cells; 22Rv1, antiproliferation, approximate value, read-out: IC50 in 22RV1 (text))","IC50 (LNCaP95 cells; approximate value, read-out: IC50 in LNCaP95 (text))",inhibition at 1 µM (22RV1 cells),"antiproliferative activity, in words (22RV1 cells)"
O=C(Nc1ccc([N+](=O)[O-])c(C(F)(F)F)c1)c1cccc(Cl)c1 [C3],0.557 ± 0.127 µM,0.557 µM,0.33 ± 0.081 µM,–,–,43.7%,retained
O=C(Nc1ccc([N+](=O)[O-])c(C(F)(F)F)c1)c1cccc(Br)c1 [C5],0.306 ± 0.058 µM,0.306 µM,0.536 ± 0.201 µM,–,–,58.3%,retained
